Measured values as given in patent US20150174145A1, “Pharmaceutical compounds with the structure of ionic salts with antibiotic and anticancer action” (priority 2013, published 2015).
Read-outs that look alike come from different tables or passages of the source.

Legend:
[1] = system: K. pneumoniae; assay: Minimum inhibitory concentration, ampicillin sensitive strains; format: cell-based, Klebsiella pneumonia; conditions: for Minimum inhibitory concentrations: K. pneumoniae, Gram-negative, ampicillin sensitive
Procedure: (§1) Each one of the 24 combinations of the ionic liquids were tested with following 9 bacteria: • Escherichia coli ATCC25922 • Staphylococcus aureus ATCC25923 • Klebsiella pneumonia • Staphylococcus epidermidis • Enterococcus fecalis • E. coli Tem CTXM9 • E. coli CTXM2 • E. coli AmpCMox2 • Saccharomyces cerevisiae PYCC 4072
(§2) These bacteria were tested in Vitek2 systems from bioMérieux. Bacteria were grown on Trypticase soy agar for 24 hours at 37° C. prior to each test. The bacteria assays were made in Tryptic Soy Broth.

[2] = system: S. epidermis; assay: as above; format: cell-based, Staphylococcus epidermidis; conditions: for Minimum inhibitory concentrations: S. epidermis, Gram-positive, ampicillin sensitive
Procedure: as §1, §2

[3] = system: E. coli CTX M2; assay: Minimum inhibitory concentration, ampicillin resistant strains; format: cell-based; conditions: for Minimum inhibitory concentrations: E. coli CTX M2, ampicillin resistant
Procedure: as §1, §2

[4] = system: E. coli TEM CTX M9; assay: as above; format: cell-based; conditions: for Minimum inhibitory concentrations: E. coli TEM CTX M9, ampicillin resistant
Procedure: as §1, §2

[5] = system: E. coli AmpC MOX2; assay: microbe, parasite or virus in culture; format: cell-based; conditions: for Minimum inhibitory concentrations: E. coli AmpC MOX2, ampicillin resistant
Procedure: as §1, §2

[6] = system: E. coli ATCC 25922; assay: Minimum inhibitory concentration, ampicillin sensitive strains; format: cell-based, Escherichia coli; conditions: for Minimum inhibitory concentrations: E. coli ATCC 25922, Gram-negative, ampicillin sensitive
Procedure: as §1, §2

[7] = system: MG63 (osteosarcoma cell line); assay: MTT cellular viability/proliferation, cancer cell lines; format: cell-based, human; conditions: MG63, MTT assay
Procedure: (§3) At about 70-80% confluence, cells were enzymatically detached with 0.05% trypsin and 0.5 mM EDTA and seeded at 10^4 cells cm^−2.
(§4) After an attachment period of 24 hours, the culture medium was renewed, and supplemented with different concentrations (0.005-500 mM) of the ampicillin derived ionic liquid. Cell cultures were maintained in a 5% CO2 humidified atmosphere at 37° C.
(§5) Cellular viability/proliferation was assessed by the MTT assay at days 1, 3 and 5 of the culture. This assay is based on the reduction of 3-(4,5-dimethylthiazol-2-yl)-2,5-diphenyltetrazolium bromide (MTT) to a purple formazan product by viable cells.
(§6) Shortly, cultured cells were incubated at 37° C. with 0.5 mg ml −1 of MTT for 4 hours. The culture medium was then removed; the stained product dissolved with dimethylsulfoxide, and absorbance determined at 550 nm in an ELISA plate rewader. Results were expressed as absorbance per cm2.
(§7) The values of the […] (IC50) and the median lethal dose (LD50) were obtained from nonlinear regression analysis of concentration effect curves using the GGraphPad Prism Software.
(§8) It is used to measure the efficacy of a compound in inhibiting any biochemical or biological function.

[8] = system: RKO (colon cancer cell line); assay: as above; format: cell-based, human; conditions: MTT assay
Procedure: as §3, §4, §5, §6, §7, §8

[9] = system: E. fecalis; assay: Minimum inhibitory concentration, ampicillin sensitive strains; format: cell-based, Enterococcus fecalis; conditions: for Minimum inhibitory concentrations: E. fecalis, Gram-positive, ampicillin sensitive
Procedure: as §1, §2

[10] = system: SF (skin fibroblasts); assay: MTT cellular viability/proliferation, primary human cells; format: cell-based; conditions: MTT assay
Procedure: as §3, §4, §5, §6, §7, §8

[11] = system: gingival fibroblasts (GF); assay: as above; format: cell-based; conditions: MTT assay
Procedure: as §3, §4, §5, §6, §7, §8

[12] = system: S. aureus ATCC 25923; assay: Minimum inhibitory concentration, ampicillin sensitive strains; format: cell-based, Staphylococcus aureus; conditions: for Minimum inhibitory concentrations: S. aureus ATCC 25923, Gram-positive, ampicillin sensitive
Procedure: as §1, §2

[13] = system: T47D (ductal breast epithelial tumour cell line); assay: cells; format: cell-based
Procedure: as §3, §4, §5, §6, §7, §8

[14] = system: PC3 (prostate cancer cell line); assay: MTT cellular viability/proliferation, cancer cell lines; format: cell-based, human; conditions: PC3, MTT assay
Procedure: as §3, §4, §5, §6, §7, §8

[15] = system: HepG2 (hepatocellular liver carcinoma cell); assay: as above; format: cell-based, human; conditions: HepG2, MTT assay
Procedure: as §3, §4, §5, §6, §7, §8

| Structure (SMILES) | Minimum inhibitory concentrations [1] [mM] | Minimum inhibitory concentrations [2] [mM] | Minimum inhibitory concentrations [3] [mM] | Minimum inhibitory concentrations [4] [mM] | Minimum inhibitory concentrations [5] [mM] | Minimum inhibitory concentrations [6] [mM] | IC50 [7] [nM] | IC50 [8] [nM] | Minimum inhibitory concentrations [9] [mM] | IC50 [11] [nM] | Minimum inhibitory concentrations [12] [mM] | IC50 [14] [nM] | other results |
| --- | --- | --- | --- | --- | --- | --- | --- | --- | --- | --- | --- | --- | --- |
| CC1(C)S[C@@H]2[C@H](NC(=O)[C@H](N)c3ccccc3)C(=O)N2[C@H]1C(=O)[O-].CCCCCCCCCCCCCCCC[n+]1ccccc1 [[C16Pyr][Amp]] | 0.05 | 0.005 | 0.05 | 0.005 | >5 | 0.5 | 11 | 226 | 0.005 | 12 | 0.005 |  | IC50 [10]: 32 nM; IC50 ([13]; T47D, MTT assay): 5 nM |
| CC1(C)S[C@@H]2[C@H](NC(=O)[C@H](N)c3ccccc3)C(=O)N2[C@H]1C(=O)[O-].CC[n+]1ccn(C)c1 [[EMIM][Amp]] | >5 | >5 | >5 | >5 | >5 | >5 |  | 269 | >5 | 853 | >5 | 30000 |  |
| CCn1cc[n+](C)c1.[Br-] [[EMIM][Br]] | >5 | 5 | >5 | 5 | >5 | >5 |  |  | >5 |  | 0.05 |  |  |
| C[N+](C)(C)CCO.[Cl-] [[Cholin][Cl]] | >5 | >5 | >5 | >5 | >5 | >5 |  |  | >5 |  | 2.5 |  |  |
| CCCCCCCCCCCCCC[P+](CCCCCC)(CCCCCC)CCCCCC.[Cl-] [[P6,6,6,14][Cl]] | 2.5 | 2.5 | 5 | 2.5 | >5 | 2.5 |  |  | >5 |  | 2.5 |  |  |
| CC1(C)S[C@@H]2[C@H](NC(=O)[C@H](N)c3ccccc3)C(=O)N2[C@H]1C(=O)[O-].C[N+](C)(C)CCO [[Cholin][Amp]] | >5 | >5 | >5 | >5 | >5 | >5 | 17 |  | >5 |  | >5 | 982 | IC50 [15]: 1620 nM; IC50 [10]: 48500 nM |
| C[n+]1ccn(CCO)c1.[Cl-] [[C2OHMIM][Cl]] | >5 | 5 | 2.5 | >5 | 5 | 5 |  |  | 5 |  | >5 |  |  |
| CCCCCCCCCCCCCCCC[n+]1ccccc1.[Cl-] [[C16Pyr][Cl]] | 2.5 | 2.5 | >5 | 0.5 | >5 | 0.5 |  |  | 0.5 |  | 0.5 |  |  |
| CC1(C)S[C@@H]2[C@H](NC(=O)[C@H](N)c3ccccc3)C(=O)N2[C@H]1C(=O)[O-].CC[N+](CC)(CC)CC [[TEA][Amp], tetraethyl ammonium salt of Ampicillin] | >5 | >5 | >5 | >5 | >5 | >5 | 30 | 56700 | >5 |  | >5 | 35600 | IC50 [13]: 42 nM |
| CC1(C)S[C@@H]2[C@H](NC(=O)[C@H](N)c3ccccc3)C(=O)N2[C@H]1C(=O)[O-].[Na+] [[Na][Amp]] [sodium ampicillin] | 2.5 | 0.05 | >5 | >5 | >5 | 0.05 |  | 2410 | 0.05 | 109000 | 0.005 | 597 |  |
| CC[N+](CC)(CC)CC [[TEA][Br], Tetraethylammonium bromide] |  |  |  |  |  |  |  |  |  |  |  |  | MIC ([1]; Klebsiella pneumoniae, read-out: Minimum inhibitory concentrations): > 5 mM; MIC ([2]; Staphylococcus epidermidis, read-out: Minimum inhibitory concentrations): > 5 mM; MIC ([3]; Escherichia coli, CTXM2, read-out: Minimum inhibitory concentrations): 2.5 mM; MIC ([4]; Escherichia coli, read-out: Minimum inhibitory concentrations): > 5 mM; MIC ([5]; Escherichia coli, AMPCMOX2, read-out: Minimum inhibitory concentrations, E. coli AmpC MOX2, ampicillin resistant): > 5 mM; MIC ([6]; Escherichia coli, ATCC25922, read-out: Minimum inhibitory concentrations): > 5 mM; MIC ([9]; Enterococcus, read-out: Minimum inhibitory concentrations): > 5 mM; MIC ([12]; Staphylococcus aureus, ATCC25923, read-out: Minimum inhibitory concentrations): 2.5 mM |
| CC1(C)S[C@@H]2[C@H](NC(=O)[C@H](N)c3ccccc3)C(=O)N2[C@H]1C(=O)[O-].C[n+]1ccn(CCO)c1 [[C2OHMIM][Amp]] | >5 | 2.5 | >5 | >5 | 5 | 5 | 738 | 359 | 5 | 462 | >5 |  | IC50 [15]: 319 nM; IC50 [10]: 5080 nM; IC50 ([13]; T47D, MTT assay): 146 nM |
